# US11628221B2, “Peptide linker and combination for prodrugs activated by prostate-specific antigen” (priority 2017, dated 2023)
# pIC50: −log10 of the molar value. Like-named read-outs stand apart in the source and are kept apart here. Numbered stars: 1 amine (or outer) side, 2 acyl side, 3 side chain; on linkers, the order of the positions; unused ones are H or OH. Square brackets hold non-standard residues; d marks the D form. Peptide text beside a SMILES is read from it. * marks the point of attachment. Doxorubicin(3'-N) = COc1cccc2c1C(=O)c1c(O)c3c(c(O)c1C2=O)C[C@@](O)(C(=O)CO)C[C@@H]3O[C@H]1C[C@H](N*)[C@H](O)[C@H](C)O1; Glutaryl = O=C(CCCC(=O)[*:2])[*:1]; Hyp = O=C(O)[C@@H]1C[C@@H](O)CN1; Chg = N[C@H](C(=O)O)C1CCCCC1; X1 = O=C(O)CCCNC(=O)CC(=O)*
# Assays:
# DU145 cells = assay: Prodrug cytotoxicity in non-PSA-secreting DU145 cells (MTT assay), selectivity; assay type: cell-based, human; details: LNCaP versus non-PSA-secreting DU145 cells, 72 h
# Protocol: (§1) Monolayer cultures of PSA-secreting LNCaP and non-PSA-secreting DU145 human prostate carcinoma cells were conducted in growth medium in a CO2 incubator under a humidified atmosphere at 37° C. for 3 weeks prior to initiating cytotoxicity experiments. During cell growth, media were changed every 3 days and trypsinization carried out at 80% confluence with a 1:4 split for subsequent cultures. Cells were grown on 96-well plates for 48 h at initial concentrations of 5000 cells/well. At the end of the 48-h period, the growth medium was replaced by serum-free medium RPMI 1640 medium containing L-glutamine (2 mM), 2% TCM, penicillin G (100 units/mL) and streptomycin sulfate (100 units/mL), and prodrugs added to wells at concentrations ranging from 0.07 to 100 μM. The plates were incubated at 37° C. for 72 h under a humidified CO2 atmosphere, and cell viability determined using the MTT assay. Briefly, 10 μL aliquots of a 12 mM MTT solution were added to wells and the plates incubated in a CO2 incubator under a humidified atmosphere at 37° C. for 4 h. Well contents were then solubilized with 1% SDS (100 μL/well) for 12 h, and OD570 values measured on a Dynatech MR5000 plate reader. Cell viability was computed as a percentage of control growth, and IC50 values determined as the concentration at which cell growth is inhibited by 50%.
# (§2) To assess cytotoxicity and tumor selectivity, all prodrugs were incubated in cultured cell lines secreting (LNCaP) or lacking (DU145) PSA for a period of 72 h. Doxorubicin was used as a positive control and cell viability determined at the end of the incubation period using an MTT assay. It was anticipated that peptide prodrugs would be activated extracellularly in LNCaP, but not DU145 cells, by the proteolytic action of PSA releasing doxorubicin that would ultimately lead to cell death.
# LNCaP cells = assay: cells; details: for pIC50: read-out: LNCaP IC50
# Protocol: as §1, §2
# human PSA = human PSA (Homo sapiens, UniProt P07288); assay: Hydrolysis of doxorubicin prodrugs by PSA (PSA enzyme assay, LC-MS/MS prodrug disappearance); details: for % of prodrug at 60 min: prodrug 1 μM incubated with human PSA 1 μM, 50 mM Tris buffer pH 8, 37° C.
# Protocol: (§3) For doxorubicin conjugates, peptide solution concentrations were determined by measuring the UV absorbance at 484 and 254 nm (20 μM for doxorubicin and 50 μM for phosphoramide mustard conjugates, respectively) of solutions prepared (based on weight) in water from 10 mM DMSO stock solutions. Using the extinction coefficients of doxorubicin at 484 nm (10,800 M-1·cm-1), peptide concentrations were calculated and adjusted accordingly to prepare 100 μM solutions in 50 mM Tris buffer, pH 8 containing 2 mM CaCl2 and 0.1% Tween 20. […] Peptide solutions were prepared in Tris buffer pH 8 at a concentration of 1.11 μM from 1 mM DMSO stock solutions, and warmed up to 37° C. Reactions were initiated at 37° C. with the addition of 5 μL aliquots of a 10 μM solution of human PSA to 45 μL aliquots of the 1.11 μM peptide solutions in eppendorf vials (total volume 50 μL, final PSA concentration 1 μM), and time points recorded over a period of 3 h. Reactions were terminated at 0, 10, 20, 30, 60, 120, 180 and 360 min by quenching 2 μL aliquots of incubates with 20 μL of chilled 50% ACN containing 0.1 μM internal standard (IS) and 0.1% formic acid (FA) pre-added to eppendorf vials. Samples were centrifuged at 3000 RPM for 15 min and the supernatants analyzed by LC-MS/MS in SRM mode as previously described. The fraction of prodrug remaining at each time point was calculated by dividing the prodrug/IS ratio by the 0-h prodrug/IS area ratio and half-life determined from prodrug disappearance rate.
# (§4) Substrate disappearance was monitored by LC-MS/MS analysis using SRM. The percentage of prodrug remaining at any given time point was computed by taking the ratio of its peak area response and that of the 0-h time point.
# [1] = target: PSA (prostate-specific antigen) (Homo sapiens, UniProt P07288); assay: as above; details: human, pH 8
# Protocol: as §3, §4
# tumor cells = details: cited from earlier work
# [2] = 72 h incubation, MTT assay, PSA-secreting LNCaP cells
# Sequence of human PSA (P07288 25-261): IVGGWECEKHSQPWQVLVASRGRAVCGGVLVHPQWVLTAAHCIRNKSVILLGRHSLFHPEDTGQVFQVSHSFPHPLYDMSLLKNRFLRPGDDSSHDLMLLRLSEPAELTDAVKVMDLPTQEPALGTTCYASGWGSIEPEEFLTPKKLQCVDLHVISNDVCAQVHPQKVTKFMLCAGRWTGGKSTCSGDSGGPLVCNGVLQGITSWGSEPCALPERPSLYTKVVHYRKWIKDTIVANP
# Sequence of PSA (prostate-specific antigen) (P07288 25-261): as above
SMILES,Selectivity against DU145 (DU145 cells),pIC50 (LNCaP cells; [2]),% of prodrug at 60 min (human PSA) [%],"cytotoxicity against PSA-secreting LNCaP cells (in words) (LNCaP cells; 72 h, MTT assay)",half-life at 1 μM [1] [min],other results
"COc1cccc2c1C(=O)c1c(O)c3c(c(O)c1C2=O)C[C@@](O)(C(=O)CO)C[C@@H]3O[C@H]1C[C@H](NC(=O)[C@H](CC(C)C)NC(=O)[C@H](CO)NC(=O)[C@H](CCC(N)=O)NC(=O)[C@@H](NC(=O)[C@H](CO)NC(=O)[C@H](C)NC(=O)[C@H](CO)NC(=O)CCCC(=O)O)C2CCCCC2)[C@H](O)[C@H](C)O1 [Prodrug 2, Glutaryl-Ser-Ala-Ser-Chg-Gln-Ser-Leu-Dox] (Glutaryl-SAS[Chg]QSL-{Doxorubicin(3'-N)})",370,6.57,12,–,–,–
"COc1cccc2c1C(=O)c1c(O)c3c(c(O)c1C2=O)C[C@@](O)(C(=O)CO)C[C@@H]3O[C@H]1C[C@H](NC(=O)[C@H](CC(C)C)NC(=O)[C@H](CO)NC(=O)[C@H](CCC(N)=O)NC(=O)[C@@H](NC(=O)[C@H](CO)NC(=O)[C@H](C)NC(=O)CC(=O)NCCCC(=O)O)C2CCCCC2)[C@H](O)[C@H](C)O1 [Prodrug 3, GABA←mGly-Ala-Ser-Chg-Gln-Ser-Leu-Dox] (X1-AS[Chg]QSL-{Doxorubicin(3'-N)})",–,–,–,most cytotoxic prodrug,22,–
"COc1cccc2c1C(=O)c1c(O)c3c(c(O)c1C2=O)C[C@@](O)(C(=O)CO)C[C@@H]3O[C@H]1C[C@H](N)[C@H](O)[C@H](C)O1 [Dox, Doxorubicin]",1,–,–,–,–,"times more potent than Leu-Doxorubicin at killing tumor cells (tumor cells): 10 times; pIC50 (LNCaP cells; Homo sapiens, LNCaP, 72 h): > 7.15"
"COc1cccc2c1C(=O)c1c(O)c3c(c(O)c1C2=O)C[C@@](O)(C(=O)CO)C[C@@H]3O[C@H]1C[C@H](NC(=O)[C@H](CC(C)C)NC(=O)[C@H](CO)NC(=O)[C@H](CCC(N)=O)NC(=O)[C@@H](NC(=O)[C@H](CO)NC(=O)[C@H](C)NC(=O)[C@@H]2C[C@@H](O)CN2C(=O)CCCC(=O)O)C2CCCCC2)[C@H](O)[C@H](C)O1 [Prodrug 1, Glutaryl-Hyp-Ala-Ser-Chg-Gln-Ser-Leu-Dox] (Glutaryl-[Hyp]AS[Chg]QSL-{Doxorubicin(3'-N)})",560,6.74,13,–,–,–
COc1cccc2c1C(=O)c1c(O)c3c(c(O)c1C2=O)C[C@@](O)(C(=O)CO)C[C@@H]3O[C@H]1C[C@H](NC(=O)[C@@H](N)CC(C)C)[C@H](O)[C@H](C)O1 [Leu-Doxorubicin],–,–,–,–,–,fold less cytotoxic (than doxorubicin) (tumor cells; Wong et al. (2001)): 10 fold
"COc1cccc2c1C(=O)c1c(O)c3c(c(O)c1C2=O)C[C@@](O)(C(=O)COC(=O)C(C)(C)CONC(=O)[C@H](CCC(N)=O)NC(=O)[C@@H](NC(=O)[C@H](CO)NC(=O)[C@H](C)NC(=O)CC(=O)NCCCC(=O)O)C1CCCCC1)C[C@@H]3O[C@H]1C[C@H](N)[C@H](O)[C@H](C)O1 [Prodrug 4, GABA←mGly-Ala-Ser-Chg-Gln-NH—O—CH2—C(Me)2C(O)-14-O-Dox]",–,–,–,"comparable to that of L-377,202",67,"cytotoxin released by the prodrug (human PSA; PSA-mediated hydrolysis, LC-MS with accurate mass (FIG. 10)): free doxorubicin"
